Experimental data from patent US20150225369A1, “DDR2 INHIBITORS FOR THE TREATMENT OF OSTEOARTHRITIS” (Merck Patent GmbH, priority 2012, published 2015).

Key:
[1] = target: T1, His-tagged human recombinant DDR-2 kinase domain (His-TEV-DDR2 467-855 aa) (Homo sapiens, UniProt Q16832); assay: Autophosphorylation assay for biochemical activity testing of DDR2 (HTRF); details: biochemical DDR2 autophosphorylation
T1 construct: His-TEV-DDR2 467-855 aa
T1 sequence (Q16832 467-855): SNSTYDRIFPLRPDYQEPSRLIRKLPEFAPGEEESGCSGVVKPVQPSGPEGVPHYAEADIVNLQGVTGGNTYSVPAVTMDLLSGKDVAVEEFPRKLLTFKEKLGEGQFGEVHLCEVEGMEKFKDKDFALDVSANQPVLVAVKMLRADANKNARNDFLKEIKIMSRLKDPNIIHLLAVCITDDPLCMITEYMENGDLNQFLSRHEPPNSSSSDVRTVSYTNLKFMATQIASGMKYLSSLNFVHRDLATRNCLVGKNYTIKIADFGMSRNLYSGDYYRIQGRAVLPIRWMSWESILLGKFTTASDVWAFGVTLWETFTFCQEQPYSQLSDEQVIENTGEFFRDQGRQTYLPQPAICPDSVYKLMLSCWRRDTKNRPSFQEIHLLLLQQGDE
Summary of the method: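 Phospho-tyrosine was detected by HTRF between XL665 anti-6His and cryptate anti-phosphotyrosine PT66 antibodies, using the emission ratio. Inhibition was referenced to the inhibitor-free reaction.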

[2] = target: T2, HEK293 transfected with human DDR2 (Homo sapiens, UniProt Q16832); assay: Phospho-DDR2 cellular assay (collagen II induced DDR2 phosphorylation, ELISA); type: cell-based; details: cellular phospho-DDR2; read-out: IC50 [p-DDR2]
T2 construct: expressed in transfected cells; host or cells: HEK293 (PLT460F_(DDR2)-P7-1)
T2 sequence (Q16832 22-855): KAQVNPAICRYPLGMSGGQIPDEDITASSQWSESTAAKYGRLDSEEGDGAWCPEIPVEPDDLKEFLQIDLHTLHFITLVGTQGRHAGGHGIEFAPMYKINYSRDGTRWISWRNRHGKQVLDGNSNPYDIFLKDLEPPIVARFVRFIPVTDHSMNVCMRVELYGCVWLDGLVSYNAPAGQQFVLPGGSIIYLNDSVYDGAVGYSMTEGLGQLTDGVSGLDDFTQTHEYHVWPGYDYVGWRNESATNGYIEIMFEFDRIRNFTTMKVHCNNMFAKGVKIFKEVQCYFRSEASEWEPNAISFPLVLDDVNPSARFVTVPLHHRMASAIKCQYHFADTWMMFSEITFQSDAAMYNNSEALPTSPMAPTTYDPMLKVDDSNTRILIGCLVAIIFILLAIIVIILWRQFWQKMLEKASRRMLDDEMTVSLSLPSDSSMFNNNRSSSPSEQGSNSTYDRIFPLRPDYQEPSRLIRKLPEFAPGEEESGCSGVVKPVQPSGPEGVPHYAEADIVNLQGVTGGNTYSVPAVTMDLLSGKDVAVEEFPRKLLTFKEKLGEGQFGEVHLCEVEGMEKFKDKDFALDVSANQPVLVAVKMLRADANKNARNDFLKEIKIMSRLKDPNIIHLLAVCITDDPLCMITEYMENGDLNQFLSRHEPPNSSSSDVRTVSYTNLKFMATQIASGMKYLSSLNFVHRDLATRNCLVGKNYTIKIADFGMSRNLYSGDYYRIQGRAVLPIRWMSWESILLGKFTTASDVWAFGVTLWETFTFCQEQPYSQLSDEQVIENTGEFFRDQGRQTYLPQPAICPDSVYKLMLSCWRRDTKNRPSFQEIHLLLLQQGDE
Summary of the method: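 Cells seeded 48 h in 10% FBS, serum-starved 8 h, then given compound (5% DMSO) with 50 μg/ml chicken collagen II for 16 h at 37 °C. Lysates captured on anti-DDR2 antibody plates; phospho-DDR2 detected with HRP anti-phosphotyrosine antibody by chemiluminescence.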

SMILES	IC50 [1]	IC50 [2]
CNC(=O)c1cc(Oc2ccc(C(C)NC(=O)Nc3cc(Cl)ccc3OC)cc2)ccn1 (stereo not drawn) [compound 72, 4-(4-{1-[3-(5-Chloro-2-methoxy-phenyl)-ureido]-ethyl}-phenoxy)-pyridine-2-carboxylic acid methylamide]	340 nM	74 nM
CNC(=O)c1cc(Oc2ccc(CNC(=O)Nc3cc(C)c(Cl)cc3OC)cc2)ccn1 [compound 78, 4-{4-[3-(4-Chloro-2-methoxy-5-methyl-phenyl)-ureidomethyl]-phenoxy}-pyridine-2-carboxylic acid methylamide]	100 nM	24 nM
CNC(=O)c1cc(Oc2ccc(CNC(=O)Nc3ccnc(Cl)c3)cc2)ccn1 [compound 89, 4-{4-[3-(2-Chloro-pyridin-4-yl)-ureidomethyl]-phenoxy}-pyridine-2-carboxylic acid methylamide]	1000 nM	1450 nM
CNC(=O)c1cc(Oc2ccc(CNC(=O)Nc3cc(Cl)ccc3OC)cc2C)ccn1 [compound 100, 4-{4-[3-(5-Chloro-2-methoxy-phenyl)-ureidomethyl]-2-methyl-phenoxy}-pyridine-2-carboxylic acid methylamide]	120 nM	25 nM
CNC(=O)c1cc(Oc2ccc(CNC(=O)Nc3cc(C)c(Cl)cc3OCCN3CCOCC3)cc2)ccn1 [compound 110, 4-(4-{3-[4-Chloro-5-methyl-2-(2-morpholin-4-yl-ethoxy)-phenyl]-ureidomethyl}-phenoxy)-pyridine-2-carboxylic acid methylamide]	290 nM	130 nM
CNCCOc1ccc(C(F)(F)F)cc1NC(=O)NCc1ccc(Oc2ccnc(C(=O)NC)c2)cc1 [compound 111, 4-(4-{3-[2-(2-Methylamino-ethoxy)-5-trifluoromethyl-phenyl]-ureidomethyl}-phenoxy)-pyridine-2-carboxylic acid methylamide]	64 nM	24 nM
CNC(=O)c1cc(Oc2ccc(CNC(=O)Nc3cc(C)c(Cl)cc3OC3CCNCC3)cc2)ccn1 [compound 124, 4-(4-{3-[4-Chloro-5-methyl-2-(piperidin-4-yloxy)-phenyl]-ureidomethyl}-phenoxy)-pyridine-2-carboxylic acid methylamide]	66 nM	40 nM
CNCCOc1cc(Cl)c(C)cc1NC(=O)NCc1ccc(Oc2ccnc(C(=O)NC)c2)cc1 [compound 125, 4-(4-{3-[4-Chloro-5-methyl-2-(2-methylamino-ethoxy)-phenyl]-ureidomethyl}-phenoxy)-pyridine-2-carboxylic acid methylamide]	187 nM	52 nM
CNCCOc1cc(Cl)c(C(F)(F)F)cc1NC(=O)NCc1ccc(Oc2ccnc(C(=O)NC)c2)cc1 [compound 127, 4-(4-{3-[4-Chloro-2-(2-methylamino-ethoxy)-5-trifluoromethyl-phenyl]-ureidomethyl}-phenoxy)-pyridine-2-carboxylic acid methylamide]	47 nM	34 nM
CNC(=O)c1cc(Oc2ccc(CNC(=O)Nc3cc(C(F)(F)F)c(Cl)cc3OCCN3CCNCC3)cc2)ccn1 [compound 128, 4-(4-{3-[4-Chloro-2-(2-piperazin-1-yl-ethoxy)-5-trifluoromethyl-phenyl]-ureidomethyl}-phenoxy)-pyridine-2-carboxylic acid methylamide]	91 nM	63 nM
CNC(=O)c1cc(Oc2ccc(CNC(=O)Nc3cc(C(F)(F)F)c(Cl)cc3OC3CCNCC3)cc2)ccn1 [compound 130, 4-(4-{3-[4-Chloro-2-(piperidin-4-yloxy)-5-trifluoromethyl-phenyl]-ureidomethyl}-phenoxy)-pyridine-2-carboxylic acid methylamide]	34 nM	24 nM
CNCCOc1cc(Cl)c(C)cc1NC(=O)NCc1ccc(Oc2ccnc(C(=O)NC)c2)c(C)c1 [compound 141, 4-(4-{3-[4-Chloro-5-methyl-2-(2-methylamino-ethoxy)-phenyl]-ureidomethyl}-2-methyl-phenoxy)-pyridine-2-carboxylic acid methylamide]	43 nM	25 nM
CNC(=O)c1cc(Oc2ccc(CNC(=O)Nc3cc(C)c(Cl)cc3OC3CCNCC3)cc2C)ccn1 [compound 142, 4-(4-{3-[4-Chloro-5-methyl-2-(piperidin-4-yloxy)-phenyl]-ureidomethyl}-2-methyl-phenoxy)-pyridine-2-carboxylic acid methylamide]	36 nM	33 nM
CNC(=O)c1cc(Oc2ccc(CNC(=O)Nc3cc(C)c(Cl)cc3OCCN3CCNCC3)cc2C)ccn1 [compound 143, 4-(4-{3-[4-Chloro-5-methyl-2-(2-piperazin-1-yl-ethoxy)-phenyl]-ureidomethyl}-2-methyl-phenoxy)-pyridine-2-carboxylic acid methylamide]	77 nM	66 nM

Next, values leading:

IC50 [1]	IC50 [2]	SMILES
55 nM	9 nM	CNC(=O)c1cc(Oc2ccc(CNC(=O)Nc3cc(Cl)c(C)cc3OC)cc2)ccn1 [compound 66, 4-{4-[3-(5-Chloro-2-methoxy-4-methyl-phenyl)-ureidomethyl]-phenoxy}-pyridine-2-carboxylic acid methylamide]
760 nM	140 nM	CNC(=O)c1cc(Oc2ccc(CNC(=O)Nc3cc(OC)c(Cl)cc3OC)cc2)ccn1 [compound 83, 4-{4-[3-(4-Chloro-2,5-dimethoxy-phenyl)-ureidomethyl]-phenoxy}-pyridine-2-carboxylic acid methylamide]
810 nM	745 nM	CNC(=O)c1cc(Oc2ccc(CNC(=O)Nc3c(Cl)cncc3Cl)cc2)ccn1 [compound 84, 4-{4-[3-(3,5-Dichloro-pyridin-4-yl)-ureidomethyl]-phenoxy}-pyridine-2-carboxylic acid methylamide]
14000 nM	4600 nM	CNC(=O)c1cc(Oc2ccc(CNC(=O)Nc3c(OC)cc(Cl)c(C)c3Cl)cc2)ccn1 [compound 103, 4-{4-[3-(2,4-Dichloro-6-methoxy-3-methyl-phenyl)-ureidomethyl]-phenoxy}-pyridine-2-carboxylic acid methylamide]
130 nM	47 nM	CNC(=O)c1cc(Oc2ccc(CNC(=O)Nc3cc(C(F)(F)F)ccc3OCCN3CCNCC3)cc2)ccn1 [compound 112, 4-(4-{3-[2-(2-Piperazin-1-yl-ethoxy)-5-trifluoromethyl-phenyl]-ureidomethyl}-phenoxy)-pyridine-2-carboxylic acid methylamide]
200 nM	55 nM	CNC(=O)c1cc(Oc2ccc(CNC(=O)Nc3cc(C)c(Cl)cc3OCCN(C)C)cc2)ccn1 [compound 118, 4-(4-{3-[4-Chloro-2-(2-dimethylamino-ethoxy)-5-methyl-phenyl]-ureidomethyl}-phenoxy)-pyridine-2-carboxylic acid methylamide]
26 nM	18 nM	CNC(=O)c1cc(Oc2ccc(CNC(=O)Nc3cc(C)c(Cl)cc3OCCN(C)C)cc2C)ccn1 [compound 139, 4-(4-{3-[4-Chloro-2-(2-dimethylamino-ethoxy)-5-methyl-phenyl]-ureidomethyl}-2-methyl-phenoxy)-pyridine-2-carboxylic acid methylamide]
